Consider one substance from patent EP2992880A1, “Use of heme oxygenase 1 inducers and cannabinoid 2 receptor or delta-opioid receptor agonists in inflammatory pain” (Fundació Institut de Recerca de l'Hospital de la Santa Creu …, priority 2014, dated 2016).

For one test, the system named is CFA-injected mice. As to the kind of experiment: von Frey filaments test (mechanical allodynia) in CFA-induced chronic inflammatory pain. In kind it is in vivo, male C57BL/6 mice. The procedure:
The experiments were performed in male C57BL/6 mice acquired from Harlan Laboratories (Barcelona, Spain). All mice weighing 21 to 25 g were housed under 12-h/12-h light/ dark conditions in a room with controlled temperature (22° C) and humidity (66%). Animals had free access to food and water and were used after a minimum of 7 days acclimatization to the housing conditions. All experiments were performed according with the Guide for the Care and Use of Laboratory Animals as adopted and promulgated by the U.S. National Institutes of Health and approved by the local Committee of Animal Use and Care of the Autonomous University of Barcelona. All efforts were made to minimize animal suffering and to reduce the number of animals used.
Chronic inflammatory pain was induced by the subplantar injection of 30 µl of CFA (Sigma) into the right hind paw under brief anesthetic conditions with isoflurane according to previous works (Leánez et al., Eur J Pharmacol, 2009, 602:41-49; Hervera et al., Naunyn Schmiedebergs Arch Pharmacol, 2009, 380:345-352). All experiments were performed at 10 days after CFA injection. At this time point, all of these animals developed a local inflammatory reaction, allodynia to mechanical stimuli and hyperalgesia to noxious thermal stimuli, as previously reported (Negrete et al., PLoS One, 2011, 6:e26688). The development of mechanical allodynia and thermal hyperalgesia was evaluated by using the von Frey filaments and plantar tests, respectively. All animals were tested in each paradigm before and at 10 days after CFA-injection.
Mechanical allodynia was quantified by measuring the hind paw withdrawal response to von Frey filament stimulation. In brief, animals were placed in methacrylate cylinders (20 cm high, 9 cm diameter; Servei Estació, Barcelona, Spain) with a wire grid bottom through which the von Frey filaments (North Coast Medical, Inc., San Jose, CA) with a bending force in the range of 0.008-3.5 g were applied by using a modified version of the up-down paradigm, as previously reported by Chaplan et al. (J Neurosci Methods, 1994, 53:55-63). The filament of 0.4 g was used first and the 3.0 g filament was used as a cut-off. Then, the strength of the next filament was decreased or increased according to the response. The threshold of response was calculated from the sequence of filament strength used during the up-down procedure by using an Excel program (Microsoft Iberia SRL, Barcelona, Spain) that includes curve fitting of the data. Clear paw withdrawal, shaking, or licking of the paw was considered as a nociceptive-like response. Both ipsilateral and contralateral hind paws were tested. Animals were allowed to habituate for 1 h before testing in order to allow an appropriate behavioral immobility.
In a first set of experiments, we assessed the expression of inflammatory pain induced by the subplantar administration of CFA as previously used (Leánez et al., Eur J Pharmacol, 2009, 602:41-49). After the habituation period, baseline responses were established in the following sequence: von Frey filaments and plantar test. After baseline measurements, inflammatory pain was induced and animals were again tested in each paradigm at day 10 after CFA injection by using the same sequence as for baseline responses. The contralateral paws were used as controls (n = 6 animals per group).
In a second set of experiments, we evaluated the mechanical antiallodynic and thermal antihyperalgesic effects of the subplantar administration of different doses of a specific DOR (DPDPE) or CB2R (JWH-015) agonist and their respective vehicles in the contralateral and ipsilateral paw of CFA-injected animals (n = 6 animals per group). […]

A further test relates to HO-1. As to the kind of experiment: Western blot of HO-1 protein in dorsal root ganglia of CFA-injected mice. In kind it is in vivo. The following applies: CoPP treatment of CFA-injected mice; P < 0.001 (Fig. 6). The procedure:
(§1) Animals were sacrificed at 0 days (naive) and after CFA-injection by cervical dislocation. Tissues from the ipsilateral section of the dorsal root ganglia (L3 to L5) were removed immediately after killing, frozen in liquid nitrogen, and stored at -80°C until assay. Samples from five animals were pooled into one experimental sample to obtain enough protein levels for performing Western blot analysis. The HO-1, DOR and CB2R protein levels were analyzed by Western blot. […]
(§2) The proteins were electrophoretically transferred onto PVDF membrane for 120 min, blocked with PBS + 5% nonfat dry milk, and subsequently incubated overnight at 4°C with polyclonal rabbit anti-HO-1 (1:300, Stressgen, Ann Arbor, MI), anti-DOR (1:2500, Chemicon-Millipore) or anti-CB2R (1:500, Abcam, Cambridge, United Kingdom). The proteins were detected by a horseradish peroxidase-conjugated anti-rabbit secondary antibody (GE Healthcare, Little Chalfont, Buckinghamshire, United Kingdom) and visualized with chemiluminescence reagents (ECL kit; GE Healthcare) and by exposure onto hyperfilm (GE Healthcare). The intensity of blots was quantified by densitometry. […]
(§3) Finally, in another set of experiments we evaluated the effects of CoPP on the expression of HO-1, DOR and CB2R in the ipsilateral site of the dorsal root ganglia from CFA-injected mice, by using Western blot assay. […]
On the technique in general: A western blot detects proteins with antibodies after separation by electrophoresis.

The subject of a further test is DOR. As to the kind of experiment: Western blot of DOR protein in dorsal root ganglia of CFA-injected mice. The test is classed as in vivo. The following applies: CoPP treatment of CFA-injected mice; P < 0.001 (Fig. 7). The procedure: as §1, §2, §3
For test [1] the following is noted: inflammatory pain; cited from earlier work.

Regarding “cobalt (III) protoporphyrin IX chloride [CoPP]”, in the test with CFA-injected mice (CoPP 10 mg/kg intraperitoneal, DPDPE 50 µg subplantar (Fig. 3A)), the “effect of CoPP treatment on the mechanical antiallodynic effects of DPDPE” value is “did not alter”. In the test on CFA-injected mice (CoPP 10 mg/kg intraperitoneal, JWH-015 30 µg subplantar, P < 0.001 (Fig. 4A)), the “effect of CoPP treatment on the antiallodynic effects of JWH-015” value is given as “significantly enhanced”. Further, the “mechanical allodynia induced by peripheral inflammation” value in the test on CFA-injected mice (CoPP alone 10 mg/kg intraperitoneal, ipsilateral paw, P < 0.001 versus vehicle (Fig. 3A)) is reported as “significantly attenuated”. The “Mechanical allodynia, Experimental results (%) (maximal possible effect)” value with CFA-injected mice (Table 5, ipsilateral paw, CoPP 10 mg/kg intraperitoneal, DPDPE 50 µg subplantar, vehicle 5.8) came out at 27.1%; with CFA-injected mice (Table 6, ipsilateral paw, CoPP 10 mg/kg intraperitoneal, JWH-015 30 µg subplantar, vehicle 4.1), 25.3%. Moreover, in the test with HO-1, the “dorsal root ganglia expression of HO-1” value was “significantly increased”. Besides, the “decreased protein levels of DOR in the dorsal root ganglia from CFA-injected mice” value in the test with DOR is “avoided”. In test [1], the “effect of CoPP on the antinociceptive effect of morphine” value was “increases”.
